Measured values from patent US20110046724A1, “Expansible Biocompatible Coats Comprising a Biologically Active Substance” (Avidal Vascular GMBH, priority 2008, published 2011).

Tests used:
[1] = tested on: human endothelial progenitor cells (EPC); assay: short-term application of paclitaxel to human endothelial progenitor cells; type: cell-based; conditions: effect dose and time dependent
Description: (§1) This effect is dose and time dependent; rising concentrations in paclitaxel and longer application show higher inhibition of cell proliferation and migration.

[2] = tested on: smooth muscle cells (SCM); assay: short-term application of paclitaxel to smooth muscle cells; type: cell-based, human; conditions: effect dose and time dependent
Description: as §1

CC(=O)O[C@H]1C(=O)[C@@]2(C)[C@H]([C@H](OC(=O)c3ccccc3)[C@]3(O)C[C@H](OC(=O)[C@H](O)[C@@H](NC(=O)c4ccccc4)c4ccccc4)C(C)=C1C3(C)C)[C@]1(OC(C)=O)CO[C@@H]1C[C@@H]2O [paclitaxel]
apoptosis, inhibition of cell proliferation and migration [1]: leads to apoptosis and therefore inhibition of cell proliferation and migration | apoptosis, inhibition of cell proliferation and migration [2]: leads to apoptosis and therefore inhibition of cell proliferation and migration
